Source: patent EP4717694A1, “PYRAZOLFORMYL PIPERAZINONE COMPOUND, PHARMACEUTICAL COMPOSITION AND USE THEREOF” (Iregene Therapeutics Co., Ltd., priority 2023, dated 2024)

What was measured:
Hela = assay: CCK-8 cell viability assay; assay type: cell-based
Description: Tumor cells OVCAR3 (ovarian cancer), HeLa ([…]), U251 (glioma), H9 cells, and non-tumor HEK293 cells were cultured in DMEM/F12 medium supplemented with 10% FBS and 1% P/S. When cells reached 70% confluency, they were digested with 0.25% Trypsin at 37°C for 2-3 minutes, and digestion was stopped with DMEM/F12 medium. Cell suspensions were collected in 15 mL centrifuge tubes, centrifuged at 1000 rpm for 5 minutes, the supernatant was discarded, and cells were resuspended in DMEM/F12 medium with 10% FBS and 1% P/S. Cells were counted using a hemocytometer, and based on the counts, they were resuspended to the desired concentration. Tumor cells were seeded in 96-well plates at 1×10^4 cells per well, 100 µL per well. From day 1 to day 7 after seeding, cells were treated with compound II-1 at 0 µM, 10 µM, 30 µM, and 50 µM (the pyrazolecarbonyl piperazinone compounds were diluted to 10 µM, 30 µM, and 50 µM with DMEM + 10% FBS). Each concentration was tested in triplicate wells.
Cell viability on days 1, 3, 5, and 7 was determined using the CCK-8 cell proliferation/cytotoxicity assay kit (Vazyme, A311-02) by measuring absorbance at OD450 nm, with wells containing only medium and CCK-8 solution as blank controls. Each concentration was measured in triplicate.
Calculation of cell survival rate: For the same cell type at the same time point, the absorbance of cells not treated with compound II-1 was set as 100% baseline. For cells treated with different concentrations, the absorbance was compared with the control group (CK) to calculate the relative proportion. For example, the survival rate of H9 cells on day 4 treated with 30 µM of the small molecule compound was calculated as follows: [OD(D4)30μMiPS]/[OD(D4)0μMH9] × 100% [formula] Table 2. Cell survival rates of various cell types after treatment with different concentrations of compound II-1 measured by CCK-8 assay

TGFBR1 = molecular target: T1, TGFBR1 (Homo sapiens, UniProt P36897); assay: Kinase activity assay (HTRF or ADP-Glo); assay type: biochemical
T1 sequence (P36897 34-503): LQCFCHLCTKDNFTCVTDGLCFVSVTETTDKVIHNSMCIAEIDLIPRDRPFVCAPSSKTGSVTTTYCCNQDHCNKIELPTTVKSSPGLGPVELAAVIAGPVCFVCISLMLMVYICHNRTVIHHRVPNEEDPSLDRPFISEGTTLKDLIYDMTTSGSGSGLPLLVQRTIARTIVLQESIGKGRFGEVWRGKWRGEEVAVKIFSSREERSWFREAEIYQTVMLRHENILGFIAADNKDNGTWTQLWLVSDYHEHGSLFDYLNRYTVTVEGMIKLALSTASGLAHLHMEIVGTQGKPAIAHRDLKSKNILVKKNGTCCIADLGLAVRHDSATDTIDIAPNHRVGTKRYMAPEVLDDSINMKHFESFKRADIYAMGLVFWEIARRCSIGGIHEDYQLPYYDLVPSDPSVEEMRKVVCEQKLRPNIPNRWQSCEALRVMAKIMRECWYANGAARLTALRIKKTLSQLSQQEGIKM
Description: (§1) A total of 330 kinase candidates (15-50 nM, 2.5 µL) were mixed with compound II-1 (2.5 mM, 25 nL, prepared in DMSO) and incubated at 25 °C for 10 minutes. Then, a mixture of kinase peptide substrate (0.2 mg/mL; supplier: GenScript) and ATP (10-60 µM; supplier: Promega; product number: V915B) was added (total 2.5 µL, prepared in assay buffer), and the reaction was carried out at 25 °C for 60-120 minutes. Finally, the reaction products were quantified using HTRF1 or ADP-Glo2 methods. During the kinase activity assay, the consumption of each substrate was kept below 10%, and each kinase assay was performed in duplicate.

BMPR2 = molecular target: T2, BMPR2 (Homo sapiens, UniProt Q13873); assay: Kinase activity assay (HTRF or ADP-Glo); assay type: biochemical
T2 sequence (Q13873 27-1038): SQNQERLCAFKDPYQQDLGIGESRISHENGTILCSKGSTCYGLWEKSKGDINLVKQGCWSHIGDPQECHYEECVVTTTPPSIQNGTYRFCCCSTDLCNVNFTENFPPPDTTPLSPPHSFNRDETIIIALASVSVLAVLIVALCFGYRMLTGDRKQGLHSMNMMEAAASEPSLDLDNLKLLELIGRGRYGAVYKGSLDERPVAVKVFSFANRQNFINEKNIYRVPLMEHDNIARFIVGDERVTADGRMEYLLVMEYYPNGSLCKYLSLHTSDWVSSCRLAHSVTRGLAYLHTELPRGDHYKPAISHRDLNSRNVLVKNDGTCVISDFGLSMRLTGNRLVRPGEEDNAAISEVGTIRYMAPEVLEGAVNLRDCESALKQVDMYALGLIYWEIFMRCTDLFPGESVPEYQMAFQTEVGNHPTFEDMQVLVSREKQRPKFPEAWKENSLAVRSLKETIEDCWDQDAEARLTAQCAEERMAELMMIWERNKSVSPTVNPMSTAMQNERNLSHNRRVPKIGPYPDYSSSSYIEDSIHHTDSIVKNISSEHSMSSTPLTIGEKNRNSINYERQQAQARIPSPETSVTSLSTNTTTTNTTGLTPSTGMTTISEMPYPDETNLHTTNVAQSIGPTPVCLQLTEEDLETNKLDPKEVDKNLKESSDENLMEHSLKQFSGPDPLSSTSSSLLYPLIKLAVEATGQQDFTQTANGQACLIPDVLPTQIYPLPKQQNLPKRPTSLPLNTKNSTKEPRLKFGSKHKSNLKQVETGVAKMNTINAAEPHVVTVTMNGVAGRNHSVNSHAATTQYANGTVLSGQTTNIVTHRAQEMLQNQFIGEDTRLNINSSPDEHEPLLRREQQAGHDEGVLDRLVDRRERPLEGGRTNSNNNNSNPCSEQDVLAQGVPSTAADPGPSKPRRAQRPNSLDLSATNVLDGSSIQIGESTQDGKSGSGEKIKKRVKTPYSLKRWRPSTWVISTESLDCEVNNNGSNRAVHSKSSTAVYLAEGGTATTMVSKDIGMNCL
Description: as §1

[1] = same concentration as in the 330 kinase screen

Compound `O=C1CN(C(=O)c2n[nH]c3c2CCC3)[C@H]2CCCC[C@@H]2N1` [II-1, (4aS,8aS)-4-(1,4,5,6-tetrahydrocyclopenta[c]pyrazole-3-carbonyl)octahydroquinoxalin-2(1H)-one] has a Cell survival rate (Hela; II-1 10 µM, Day 1 Treatment) of 103.32%, a Cell survival rate (Hela; II-1 10 µM, Day 3 Treatment) of 98.58% and a Cell survival rate (Hela; II-1 10 µM, Day 5 Treatment) of 97.35%. For the same compound, the Cell survival rate (Hela; II-1 10 µM, Day 7 Treatment) was 97.27%, the Cell survival rate (Hela; II-1 30 µM, Day 1 Treatment) was 100.64% and the Cell survival rate (Hela; II-1 30 µM, Day 3 Treatment) was 93.45%. For the same compound, the Cell survival rate (Hela; II-1 30 µM, Day 5 Treatment) was 90.71%, the Cell survival rate (Hela; II-1 30 µM, Day 7 Treatment) was 85.04% and the Cell survival rate (Hela; II-1 50 µM, Day 1 Treatment) was 88.66%. For the same compound, the Cell survival rate (Hela; II-1 50 µM, Day 3 Treatment) was 81.80%, the Cell survival rate (Hela; II-1 50 µM, Day 5 Treatment) was 80.31% and the Cell survival rate (Hela; II-1 50 µM, Day 7 Treatment) was 75.83%. For the same compound, the “cell viability, course with time and concentration” value (Hela; II-1 10-50 µM, days 1-7) was “gradual decrease in cell viability over time”, the “inhibition of TGFBR1 kinase” value (TGFBR1; different concentrations, up to 12.5 µM, threefold serial dilution, Figure 1B) was “no inhibition” and the “inhibition of kinase activity of TGFBR1” value (TGFBR1; [1]) was “did not inhibit”. The “inhibition of BMPR2 kinase” value (BMPR2; different concentrations, up to 12.5 µM, threefold serial dilution, Figure 1C) was “no inhibition” and the “inhibition of kinase activity of BMPR2” value (BMPR2; [1]) was “did not inhibit”.
